Experimental data published in patent publication US20110118314A1, “PIPERIDINE ANALOGS AS GLYCOGEN SYNTHASE ACTIVATORS” (priority 2009, published 2011).

Tested on: glycogen synthase
Test: Glycogen Synthase (GS) Assay
Format: biochemical
Details: for EC50: compound concentration needed to give 50% maximum activation; for GS SC200: compound concentration needed to stimulate 200% of the enzyme activity
Procedure: The following tests were carried out in order to determine the activity of the compounds of formula (I).
Twelve μL per well of substrate solution containing glycogen (4.32 mg/mL), 2.67 mM UDP-glucose, 21.6 mM phospho(enol)pyruvate and 2.7 mM NADH in 30 mM glycylglycine, pH 7.3 buffer was added into a polystyrene 384-well assay plate (BD Biosciences).
Compound solutions (8 μL/well) at various concentrations (0-300 μM) were added to the assay plate (columns 5-24). Compound solution contains 30 mM glycylglycine, pH 7.3, 40 mM KCl, 20 mM MgC12, 9.2% DMSO, with (columns 15-24) or without (columns 5-14) 20 mM glucose 6-phosphate.
Enzyme solution (12 μL/well) containing glycogen synthase (16.88 μg/mL), pyruvate kinase (0.27 mg/mL), lactate dehydrogenase (0.27 mg/mL) in 50 mM Tris-HCl, pH 8.0, 27 mM DTT and bovine serum albumin (BSA, 0.2 mg/mL) was added to the assay plate (columns 3-24). As a blank control, enzyme solution without glycogen synthase was added into the top half wells of columns 1-2. To the bottom half wells of columns 1-2 were added a known activator, glucose 6-phosphate (at final concentration 5 mM) in addition to the enzyme solution. The reaction mixture was incubated at room temperature. The assay plate was then read for absorbance at 340 nm on an Envision reader every 3 minutes up to a total of 15 minutes.
The enzyme activity (with or without compound) was calculated by the reaction rate and represented by the optical density change (SOD) per minute. Percent stimulation of glycogen synthase activity by a compound at various concentrations was calculated by the following formula: […]
where Rs is the reaction rate of the enzyme in the presence of compound and Rt is the reaction rate of the enzyme in the absence of compound.
SC200 is defined as the compound concentration that is needed to stimulate 200% of the enzyme activity. EC50 is defined as the compound concentration that is needed to give 50% maximum activation.
Compounds from Example 1 through Example 36 were assayed according to assay procedures described above and the results are listed in Table 1 below: […]

SMILES | EC50 | GS SC200
COc1cc(F)c(F)cc1-c1ccc(OC[C@@H]2CCCN(C(=O)N(C)CC(=O)NS(C)(=O)=O)C2)cc1 [Example 33, (R)-3-(4′,5′-Difluoro-2′-methoxy-biphenyl-4-yloxymethyl)-piperidine-1-carboxylic acid (2-methanesulfonylamino-2-oxo-ethyl)-methyl-amide] | 2.03 µM | 0.41 µM
COc1cc(F)c(F)cc1-c1ccc(OC[C@H]2CCCN(C(=O)N(CC(=O)O)Cc3ccccc3)C2)cc1 (single isomer, unassigned) [Example 24] | 4.76 µM | 1.99 µM
COc1cc(F)c(F)cc1-c1ccc(OCC2CCCN(C(=O)C(C)C(=O)O)C2)cc1 (stereo not drawn) [Example 17, 3-[3-(4′,5′-Difluoro-2′-methoxy-biphenyl-4-yloxymethyl)-piperidin-1-yl]-2-methyl-3-oxo-propionic acid] | 0.68 µM | 0.29 µM
CONC(=O)CC(=O)N1CCCC(COc2ccc(-c3cc(F)c(F)cc3OC)cc2)C1 (stereo not drawn) [Example 5, 3-[3-(4′,5′-Difluoro-2′-methoxy-biphenyl-4-yloxymethyl)-piperidin-1-yl]-N-methoxy-3-oxo-propionamide] | 6.42 µM | 0.99 µM
COc1cc(F)c(F)cc1-c1ccc(OCC2CCCN(C(=O)[C@H]3CCC[C@@H]3C(=O)O)C2)cc1 (stereo in doubt) [Example 7, 2-[3-(4′,5′-Difluoro-2′-methoxy-biphenyl-4-yloxymethyl)-piperidine-1-carbonyl]-cyclopentanecarboxylic acid] | 6.28 µM | 1.55 µM
COc1cc(F)c(F)cc1-c1ccc(OCC2CCN(C(=O)N(C)CC(=O)NS(C)(=O)=O)C2)cc1 (stereo not drawn) [Example 36, 3-(4′,5′-Difluoro-2′-methoxy-biphenyl-4-yloxymethyl)-pyrrolidine-1-carboxylic acid (2-methanesulfonylamino-2-oxo-ethyl)-methyl-amide] | 7.68 µM | 0.8 µM
COc1cc(F)c(F)cc1-c1ccc(OCC2CCCN(C(=O)C3(C(=O)O)CC3)C2)cc1 (stereo not drawn) [Example 1, 1-[3-(4′,5′-Difluoro-2′-methoxy-biphenyl-4-yloxymethyl)-piperidine-1-carbonyl]-cyclopropanecarboxylic acid] | 3.4 µM | 1.1 µM
COc1cc(F)c(F)cc1-c1ccc(OCC2CCCN(C(=O)C3CN(C(=O)OC(C)(C)C)CC3C(=O)O)C2)cc1 (stereo not drawn) [Example 14, 4-[3-(4′,5′-Difluoro-2′-methoxy-biphenyl-4-yloxymethyl)-piperidine-1-carbonyl]-pyrrolidine-1,3-dicarboxylic acid 1-tert-butyl ester] | 3.72 µM | 1.94 µM
COc1cc(F)c(F)cc1-c1ccc(OCC2CCCN(C(=O)C3CN(C(N)=O)CC3C(=O)O)C2)cc1 (stereo not drawn) [Example 16, 1-Carbamoyl-4-[3-(4′,5′-difluoro-2′-methoxy-biphenyl-4-yloxymethyl)-piperidine-1-carbonyl]-pyrrolidine-3-carboxylic acid] | 6.48 µM | 0.42 µM
